Data from US9266847B2, “Compounds, probes, and methods of synthesis and methods of imaging COX-2-associated diseases” (Vanderbilt University, priority 2012, dated 2016).

Target: T1, ovine COX2 (Ovis aries, UniProt P79208)
T1 sequence (P79208 17-603): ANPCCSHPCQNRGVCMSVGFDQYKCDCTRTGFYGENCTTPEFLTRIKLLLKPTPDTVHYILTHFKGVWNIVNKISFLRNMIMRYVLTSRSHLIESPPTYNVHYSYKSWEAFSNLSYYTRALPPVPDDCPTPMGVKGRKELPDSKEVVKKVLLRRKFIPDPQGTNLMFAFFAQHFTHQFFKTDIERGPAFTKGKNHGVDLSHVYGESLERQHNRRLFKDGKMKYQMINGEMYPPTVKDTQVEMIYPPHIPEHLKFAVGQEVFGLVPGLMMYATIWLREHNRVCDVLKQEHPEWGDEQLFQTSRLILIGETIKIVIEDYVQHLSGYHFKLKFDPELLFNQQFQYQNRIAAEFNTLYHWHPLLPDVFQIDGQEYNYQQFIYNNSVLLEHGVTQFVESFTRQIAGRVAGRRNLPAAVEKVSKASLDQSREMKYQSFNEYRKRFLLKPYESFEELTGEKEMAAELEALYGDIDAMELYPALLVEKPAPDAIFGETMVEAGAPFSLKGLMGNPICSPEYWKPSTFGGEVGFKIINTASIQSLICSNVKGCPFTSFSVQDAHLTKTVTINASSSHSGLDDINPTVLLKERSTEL
Assay: IC50 assay, Cayman colorimetric COX inhibitor screening assay kit
Conditions: FIG. 2, 10 duplicate concentrations
Description: Various concentrations of the ^19F-COX2 compound ranging from 0.1 μM to 0.3 nM were dispensed into designated wells within a 96-well microtiter plate at a final volume of 220 μL per well. Each well contained an assay buffer, heme, and ovine COX2 provided in Cayman's colorimetric COX inhibitor screening assay kit. […] Five minutes after incubation of all assay components at 25° C., an arachidonic acid substrate at a final concentration of 100 μM and the colorimetric co-substrate N,N,N′,N′-tetramethyl-p-phenylenediamine were added to each well. The plate was then incubated at 25° C. for an additional 5 min before reading the absorbance at 590 nm using a plate reader. Absorbance of the duplicate assay of each well was averaged and subtracted from the 100% initial activity sample, after which it was divided by the 100% initial activity sample and multiplied by 100 to arrive at the percentage of inhibition.

- Hill slope of the inhibition curve: −0.62
Structure (SMILES): Cc1csc(Cc2c3cccccc-3c(C(=O)c3ccc(F)cc3)c2C)n1 [^19F-COX2]
